Laboratory results: ChEMBL document CHEMBL1201862, “PubChem BioAssay data set” (2004)
The source made the active and inactive calls.

Assays:
Trypsin = Trypsin (Sus scrofa, UniProt P00761); assay: porcine trypsin inhibitors, dose response, selectivity assay for Rce1 protease inhibitor project, biochemical, quenched peptide fluorescence, cherry-pick (AID 488789)
[1] = molecular target: Induced myeloid leukemia cell differentiation protein Mcl-1 (Homo sapiens, UniProt Q07820); assay type: functional
Sequence of Induced myeloid leukemia cell differentiation protein Mcl-1 (Q07820 whole entry): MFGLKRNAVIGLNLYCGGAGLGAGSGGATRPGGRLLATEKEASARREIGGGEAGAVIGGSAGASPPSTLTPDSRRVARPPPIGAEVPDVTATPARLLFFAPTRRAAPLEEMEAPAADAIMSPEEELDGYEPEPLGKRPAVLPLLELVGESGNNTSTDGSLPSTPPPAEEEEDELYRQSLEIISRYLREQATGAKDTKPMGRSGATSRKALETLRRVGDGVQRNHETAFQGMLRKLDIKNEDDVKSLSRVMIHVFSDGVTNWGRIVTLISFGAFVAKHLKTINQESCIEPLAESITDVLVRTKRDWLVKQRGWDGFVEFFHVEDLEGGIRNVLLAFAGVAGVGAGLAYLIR

fMet-Leu-Phe receptor = molecular target: T1, fMet-Leu-Phe receptor (Homo sapiens, UniProt P21462); assay: FPR ligands, dose response (AID 519); assay type: functional
T1 sequence (P21462 whole entry): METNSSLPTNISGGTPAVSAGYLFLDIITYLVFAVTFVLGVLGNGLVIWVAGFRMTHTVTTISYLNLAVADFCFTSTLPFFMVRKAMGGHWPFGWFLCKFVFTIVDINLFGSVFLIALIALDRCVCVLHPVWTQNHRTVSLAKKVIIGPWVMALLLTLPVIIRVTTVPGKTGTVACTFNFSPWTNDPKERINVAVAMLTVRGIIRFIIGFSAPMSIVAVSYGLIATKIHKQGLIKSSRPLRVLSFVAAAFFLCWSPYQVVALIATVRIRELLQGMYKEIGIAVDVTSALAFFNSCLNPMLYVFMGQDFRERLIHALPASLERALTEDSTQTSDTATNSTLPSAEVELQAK

[2] = inhibitors of HIV Env-driven cell fusion, dose response, cherry-pick (AID 652057); assay type: functional, cell-based
[3] = off-target signal loss in HeLa-CEM21 co-culture – HeLa F-luc CTL cells, cherry-picked, counter-screen for HIV-1 Env fusion inhibitor project, dose response (AID 652040); assay type: functional, cell-based;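 further: potency for signal decrease marking cytotoxic or nonspecific inhibition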
[4] = inhibitors of clade B AD8 Env fusion, dose response, cell-based, cherry-pick (AID 652062); assay type: functional;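 further: luciferase signal from cell-cell fusion driven by HIV-1 clade B AD8 Env; potency is for inhibitors of fusion seen as a drop in luminescence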
[5] = ZM109 Env clade C HIV-1 fusion inhibitors, dose response, HeLa effector, CEM target cells, luciferase, cherry-pick (AID 652058); assay type: functional, cell-based
Caspase-6 = molecular target: T2, Caspase-6 (Homo sapiens, UniProt P55212); assay: human caspase-6 inhibitors, dose response, biochemical, VEID-R110 fluorescence, cherry-pick (AID 720632)
T2 sequence (P55212 whole entry): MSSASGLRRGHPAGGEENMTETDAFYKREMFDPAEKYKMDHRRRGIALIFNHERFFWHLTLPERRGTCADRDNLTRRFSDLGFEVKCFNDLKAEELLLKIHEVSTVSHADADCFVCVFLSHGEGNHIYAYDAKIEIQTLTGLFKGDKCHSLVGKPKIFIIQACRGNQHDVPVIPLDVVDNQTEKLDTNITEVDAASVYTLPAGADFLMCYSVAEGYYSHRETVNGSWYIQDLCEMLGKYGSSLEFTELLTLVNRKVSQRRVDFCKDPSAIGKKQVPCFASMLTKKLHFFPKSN

[6] = inhibitors of intracellular T. cruzi replication, confirmation, NIH3T3 host cells, beta-gal luminescence (AID 2044); assay type: functional, cell-based;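 further: intracellular parasites grown in NIH/3T3 mouse fibroblasts as host cells; luminescent beta-galactosidase reporter signal from transgenic T. cruzi replicating inside host cells; inhibitors lower the luminescence signal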
[7] = cytotoxicity toward NIH3T3 fibroblasts, dose response, counter-screen, cell-based, ATP luminescence, mouse fibroblasts (AID 2010); assay type: functional;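 further: cells exposed to compound for about 90 hours before reading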
[8] = A cytotoxicity screen of small molecule inhibitors of the PhoP region in Salmonella typhi identified in the primary screen. [Related pubchem assays: 1850, 1864, 1985 ]; assay type: functional
[9] = molecular target: Peroxisome proliferator-activated receptor gamma/Nuclear receptor coactivator 1 (Homo sapiens, UniProt P37231); assay type: functional;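 further: agonist potency as compounds enhance coactivator SRC-1 recruitment to PPARgamma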
Sequence of Peroxisome proliferator-activated receptor gamma/Nuclear receptor coactivator 1 (P37231 whole entry): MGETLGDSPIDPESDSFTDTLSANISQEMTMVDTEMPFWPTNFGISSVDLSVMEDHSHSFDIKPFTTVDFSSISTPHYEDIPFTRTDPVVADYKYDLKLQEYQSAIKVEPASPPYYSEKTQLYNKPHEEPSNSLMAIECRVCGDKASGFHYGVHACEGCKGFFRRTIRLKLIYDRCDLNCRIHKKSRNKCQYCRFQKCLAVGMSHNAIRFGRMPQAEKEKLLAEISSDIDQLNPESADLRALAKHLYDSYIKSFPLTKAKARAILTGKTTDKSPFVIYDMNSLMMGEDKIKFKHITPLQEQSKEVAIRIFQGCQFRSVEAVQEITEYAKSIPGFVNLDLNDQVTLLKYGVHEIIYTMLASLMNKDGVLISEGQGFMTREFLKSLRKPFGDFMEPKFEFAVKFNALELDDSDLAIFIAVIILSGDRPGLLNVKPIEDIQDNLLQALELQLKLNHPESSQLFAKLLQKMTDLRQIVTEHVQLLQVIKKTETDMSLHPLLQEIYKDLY
Sequence of Peroxisome proliferator-activated receptor gamma/Nuclear receptor coactivator 1 (Q15788 whole entry, further chain): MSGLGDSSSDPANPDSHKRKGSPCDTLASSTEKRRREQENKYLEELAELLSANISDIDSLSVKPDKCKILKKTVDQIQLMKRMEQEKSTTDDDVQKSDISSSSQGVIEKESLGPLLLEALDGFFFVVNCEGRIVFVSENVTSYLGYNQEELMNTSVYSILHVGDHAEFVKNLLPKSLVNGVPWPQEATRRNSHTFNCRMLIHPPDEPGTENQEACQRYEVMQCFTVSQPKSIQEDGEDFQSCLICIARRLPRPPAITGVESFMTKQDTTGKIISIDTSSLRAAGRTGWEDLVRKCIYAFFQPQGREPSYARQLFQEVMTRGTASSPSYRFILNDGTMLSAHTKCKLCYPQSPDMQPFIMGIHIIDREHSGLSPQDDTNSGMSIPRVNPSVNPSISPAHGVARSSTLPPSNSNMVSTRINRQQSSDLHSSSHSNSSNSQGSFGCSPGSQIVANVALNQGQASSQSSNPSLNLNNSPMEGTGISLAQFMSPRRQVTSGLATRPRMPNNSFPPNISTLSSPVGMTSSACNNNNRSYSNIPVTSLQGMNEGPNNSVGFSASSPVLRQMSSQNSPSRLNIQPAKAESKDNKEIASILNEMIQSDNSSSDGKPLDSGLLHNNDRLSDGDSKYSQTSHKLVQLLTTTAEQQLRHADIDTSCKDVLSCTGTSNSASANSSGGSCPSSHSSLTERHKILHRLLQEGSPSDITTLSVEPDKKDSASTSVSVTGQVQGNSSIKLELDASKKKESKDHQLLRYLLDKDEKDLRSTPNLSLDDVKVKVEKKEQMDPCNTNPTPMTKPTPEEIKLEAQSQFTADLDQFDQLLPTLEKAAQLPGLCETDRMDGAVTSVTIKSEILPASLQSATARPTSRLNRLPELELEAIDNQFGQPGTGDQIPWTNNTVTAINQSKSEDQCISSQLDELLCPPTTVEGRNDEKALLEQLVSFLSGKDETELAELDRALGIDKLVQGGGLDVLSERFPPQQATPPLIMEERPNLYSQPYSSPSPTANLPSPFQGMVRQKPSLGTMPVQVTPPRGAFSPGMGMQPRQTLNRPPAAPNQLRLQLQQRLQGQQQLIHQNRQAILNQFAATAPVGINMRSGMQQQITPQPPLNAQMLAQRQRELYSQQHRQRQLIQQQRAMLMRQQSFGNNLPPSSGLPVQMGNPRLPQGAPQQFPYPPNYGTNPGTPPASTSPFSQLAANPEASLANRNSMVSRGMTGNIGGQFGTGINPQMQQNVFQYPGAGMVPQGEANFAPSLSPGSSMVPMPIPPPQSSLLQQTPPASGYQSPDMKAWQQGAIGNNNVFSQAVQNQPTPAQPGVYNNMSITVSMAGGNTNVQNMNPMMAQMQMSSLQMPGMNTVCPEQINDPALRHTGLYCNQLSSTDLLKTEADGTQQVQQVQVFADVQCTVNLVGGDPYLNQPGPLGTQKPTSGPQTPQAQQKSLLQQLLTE

[10] = molecular target: Peroxisome proliferator-activated receptor gamma/Nuclear receptor coactivator 3 (Homo sapiens, UniProt P37231); assay type: functional;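 further: agonist potency for raising coactivator recruitment to the receptor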
[11] = molecular target: Peroxisome proliferator-activated receptor gamma/Nuclear receptor coactivator 2 (Homo sapiens, UniProt P37231); assay type: functional;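 further: agonist potency for raising coactivator recruitment to the receptor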
Sequence of Peroxisome proliferator-activated receptor gamma/Nuclear receptor coactivator 2 (P37231 whole entry): as the sequence (P37231 whole entry) above
Sequence of Peroxisome proliferator-activated receptor gamma/Nuclear receptor coactivator 2 (Q15596 whole entry, further chain): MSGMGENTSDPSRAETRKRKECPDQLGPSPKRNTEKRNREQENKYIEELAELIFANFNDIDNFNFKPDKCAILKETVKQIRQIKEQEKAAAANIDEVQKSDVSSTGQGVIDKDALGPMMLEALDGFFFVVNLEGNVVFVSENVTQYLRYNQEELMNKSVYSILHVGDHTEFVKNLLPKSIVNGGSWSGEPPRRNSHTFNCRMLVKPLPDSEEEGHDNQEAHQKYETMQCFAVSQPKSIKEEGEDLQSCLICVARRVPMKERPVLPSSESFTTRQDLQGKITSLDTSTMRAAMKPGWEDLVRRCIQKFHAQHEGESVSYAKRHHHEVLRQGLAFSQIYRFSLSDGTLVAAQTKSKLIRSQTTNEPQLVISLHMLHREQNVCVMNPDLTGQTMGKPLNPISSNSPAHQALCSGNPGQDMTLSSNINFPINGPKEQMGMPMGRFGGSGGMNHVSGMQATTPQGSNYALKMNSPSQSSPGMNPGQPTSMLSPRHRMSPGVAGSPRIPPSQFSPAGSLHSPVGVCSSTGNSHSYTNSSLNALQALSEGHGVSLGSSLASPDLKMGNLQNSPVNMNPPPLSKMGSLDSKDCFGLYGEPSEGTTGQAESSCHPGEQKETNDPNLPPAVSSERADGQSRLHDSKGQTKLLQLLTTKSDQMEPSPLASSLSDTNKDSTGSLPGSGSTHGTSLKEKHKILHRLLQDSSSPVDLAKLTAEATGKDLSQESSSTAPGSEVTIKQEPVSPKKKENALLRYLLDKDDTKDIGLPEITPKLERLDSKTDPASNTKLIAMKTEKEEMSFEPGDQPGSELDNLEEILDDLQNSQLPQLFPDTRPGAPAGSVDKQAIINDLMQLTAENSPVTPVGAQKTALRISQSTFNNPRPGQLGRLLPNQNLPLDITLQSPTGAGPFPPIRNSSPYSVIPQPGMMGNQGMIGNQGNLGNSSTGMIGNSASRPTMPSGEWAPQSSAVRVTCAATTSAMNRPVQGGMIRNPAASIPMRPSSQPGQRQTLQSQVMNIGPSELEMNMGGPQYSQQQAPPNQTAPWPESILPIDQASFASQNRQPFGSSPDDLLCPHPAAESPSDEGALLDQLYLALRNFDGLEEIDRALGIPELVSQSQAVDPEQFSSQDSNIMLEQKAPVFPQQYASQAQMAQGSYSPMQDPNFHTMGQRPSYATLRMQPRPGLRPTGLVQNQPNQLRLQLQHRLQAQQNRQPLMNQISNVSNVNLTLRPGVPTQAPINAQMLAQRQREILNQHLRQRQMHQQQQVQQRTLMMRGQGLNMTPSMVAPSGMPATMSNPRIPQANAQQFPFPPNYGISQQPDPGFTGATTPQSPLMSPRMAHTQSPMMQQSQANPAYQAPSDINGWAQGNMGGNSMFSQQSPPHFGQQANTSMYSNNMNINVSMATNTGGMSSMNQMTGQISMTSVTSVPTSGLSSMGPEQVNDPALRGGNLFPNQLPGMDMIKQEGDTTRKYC

[12] = THP-1 cell cytotoxicity, dose response, cytotoxicity control for non-replicating M. tuberculosis project (AID 489025); assay type: functional
cells [13] = assay type: functional
[14] = molecular target: T3, Nuclear receptor subfamily 0 group B member 1 (Homo sapiens, UniProt P51843); assay type: functional, cell-based;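 further: HEK293T cells transfected with SF-1 and DAX-1 plus StAR promoter luciferase reporter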
T3 sequence (P51843 whole entry): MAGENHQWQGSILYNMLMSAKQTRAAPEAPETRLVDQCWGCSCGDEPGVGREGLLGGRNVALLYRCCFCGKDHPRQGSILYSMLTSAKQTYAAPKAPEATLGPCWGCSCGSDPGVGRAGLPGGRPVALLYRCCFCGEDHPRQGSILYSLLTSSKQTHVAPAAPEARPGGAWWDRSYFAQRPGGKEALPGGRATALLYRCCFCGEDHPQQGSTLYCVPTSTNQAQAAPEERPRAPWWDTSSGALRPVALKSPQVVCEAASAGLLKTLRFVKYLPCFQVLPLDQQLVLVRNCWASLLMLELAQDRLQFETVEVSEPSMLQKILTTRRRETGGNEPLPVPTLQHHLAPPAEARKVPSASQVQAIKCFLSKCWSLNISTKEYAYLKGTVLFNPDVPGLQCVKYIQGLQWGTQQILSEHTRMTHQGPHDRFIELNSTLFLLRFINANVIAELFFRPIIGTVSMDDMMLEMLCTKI

cells [15] = assay type: functional, cell-based
[16] = molecular target: Luciferin 4-monooxygenase (Photinus pyralis, UniProt P08659); assay: firefly luciferase enzyme inhibitors, dose response, biochemical, luminescence (AID 1891)
Sequence of Luciferin 4-monooxygenase (P08659 whole entry): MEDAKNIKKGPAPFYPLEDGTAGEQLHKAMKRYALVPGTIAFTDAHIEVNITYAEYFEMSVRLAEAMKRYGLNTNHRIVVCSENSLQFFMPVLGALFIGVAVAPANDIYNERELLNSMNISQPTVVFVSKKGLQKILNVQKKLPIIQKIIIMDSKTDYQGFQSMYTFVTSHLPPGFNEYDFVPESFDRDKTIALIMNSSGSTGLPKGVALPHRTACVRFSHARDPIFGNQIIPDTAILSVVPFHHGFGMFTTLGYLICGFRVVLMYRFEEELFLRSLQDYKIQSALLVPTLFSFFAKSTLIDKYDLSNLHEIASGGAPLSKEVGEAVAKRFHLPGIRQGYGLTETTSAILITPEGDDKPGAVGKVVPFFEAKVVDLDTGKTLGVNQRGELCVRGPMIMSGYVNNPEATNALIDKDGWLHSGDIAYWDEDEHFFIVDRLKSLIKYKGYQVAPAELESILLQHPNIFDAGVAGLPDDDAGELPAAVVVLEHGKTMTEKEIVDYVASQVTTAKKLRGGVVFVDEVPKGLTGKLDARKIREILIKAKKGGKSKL

[17] = Luminescence Cell-Based Dose Confirmation HTS to Identify Inhibitors of Platelet Dense Granule Release. [Related pubchem assays: 1663 (Primary HTS), 1678 (Summary of Project)]; assay type: functional
[18] = Vero E6 cell cytotoxicity, dose response, cytotoxicity control for non-replicating M. tuberculosis project, secondary assay (AID 492998); assay type: functional, VeroE6; conditions: Vero C1008
[19] = molecular target: Dual specificity tyrosine-phosphorylation-regulated kinase 1A (Rattus norvegicus, UniProt Q63470); assay type: biochemical, Homo sapiens
[20] = C. albicans growth with fluconazole, confirmation, fluorescence, retest (AID 2467); assay type: functional, cell-based
[21] = NIH-3T3 fibroblast cytotoxicity, dose response, cytotoxicity control, cell-based, fluorescence, Alamar Blue, secondary assay (AID 2327); assay type: functional;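 further: NIH-3T3 mouse fibroblasts cultured with fluconazole at 8 µg/mL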

Sequence of Trypsin (P00761 whole entry): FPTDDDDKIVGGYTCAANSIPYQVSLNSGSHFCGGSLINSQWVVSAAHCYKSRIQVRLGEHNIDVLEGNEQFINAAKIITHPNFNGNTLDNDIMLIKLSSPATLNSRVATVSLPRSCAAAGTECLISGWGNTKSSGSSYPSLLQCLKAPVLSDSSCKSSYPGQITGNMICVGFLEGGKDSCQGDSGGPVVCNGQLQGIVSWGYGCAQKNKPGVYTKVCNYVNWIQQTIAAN

In the case of `N=c1oc2cc(O)ccc2cc1C(=O)Nc1nc2ccccc2s1`, the AC50 (Trypsin) is reported as 12.4 µM (active) and the IC50 [1] is reported as 3.21 µM (active).
With `COCCN1C(=O)C(O)=C(C(=O)c2cccs2)C1c1ccccc1` (stereo not drawn) the Ki (fMet-Leu-Phe receptor) was > 66.7 µM (inactive).
With `COc1ccc(S(=O)(=O)N2CCCCC2)cc1NC(=O)Cc1sc(C)nc1-c1ccc(F)cc1` the AC50 [2] was 0.863 µM (active), the AC50 [3] was 2.18 µM (active) and the AC50 [4] was 6.25 µM (active). For the same compound, the AC50 [5] was 2.59 µM (active).
For `O=C(O)C1Oc2cc3ccccc3cc2O1`, the AC50 (Caspase-6) was 8.44 µM (active).
With `CN1CCC(OC(=O)c2ccc(Cl)cc2Cl)CC1` the EC50 [6] was 0.127 µM (active), the EC50 [7] was > 60 µM (not active) and the EC50 [8] was > 50 µM (active).
For `CC(=O)c1c(C)[nH]c(C(=O)OCC(=O)NCC(C)C)c1C`, the EC50 [8] was > 50 µM (active).
With `Cc1cccc(N2CCN(C(=O)C3CCN(c4nnc(-n5cccc5)s4)CC3)CC2C)c1` (stereo not drawn) the EC50 [8] was > 50 µM (active).
For `CCOC(=O)COc1ccc(/C=C2\NC(=S)N(CC)C2=O)cc1`, the EC50 [9] was > 79.4 µM (not active), the EC50 [10] was > 79.4 µM (not active) and the EC50 [11] was > 79.4 µM (not active). The CC50 [12] was > 40 µM (active) and the IC50 (cells [13]) was 3.34 µM (active).
With `O=C(/C=C\Nc1ccc2c(c1)OCO2)c1cccs1` the IC50 [14] was > 67.5 µM (inactive), the IC50 (cells [15]) was > 67.5 µM (inactive) and the EC50 [16] was 0.912 µM (active). For the same compound, the EC50 [17] was 6.14 µM (active).
In the case of `CCOc1cc(-c2nnc(NC(=O)c3ccco3)o2)cc(OCC)c1OCC`, the CC50 [18] is reported as > 20 µM (active) and the IC50 (cells [13]) is reported as 5.12 µM (active).
In the case of `O=C(CCS(=O)(=O)c1ccccc1)N(CCCN1CCOCC1)c1nc2ccc(F)cc2s1`, the EC50 [6] is reported as 2.06 µM (active), the EC50 [7] is reported as 6.18 µM (active) and the IC50 [14] is reported as > 67.5 µM (inactive). For the same compound, the IC50 (cells [15]) was > 67.5 µM (inactive).
For `c1ccc2sc(NN=C3CCCCCC3)nc2c1`, the AC50 [19] was 3.89 µM (active), the IC50 [14] was > 0.278 µM (active) and the IC50 (cells [15]) was > 67.5 µM (inactive). For the same compound, the EC50 [20] was > 38 µM (not active) and the EC50 [21] was > 150 µM (inactive).
